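Cells were grown in 96-well plates and exposed to each compound for 48 hours at five concentrations; endpoints were interpolated linearly between bracketing concentrations, or set to the highest concentration if not reached. GI50: concentration for 50% inhibition of growth.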 Active and inactive are the calls of the source. Cut-off read from the data, not from the text of the source: active = GI50 up to about 1.1 µM and inactive = higher.
Assays:
Experiment in all cases: NCI anticancer screen, dose series, 48 h
HOP-92 = tested on: HOP-92
K562 = tested on: K562
RXF 393 = tested on: RXF 393
A549 = tested on: A549
NCI-H522 = tested on: NCI-H522
HCC 2998 = tested on: HCC 2998
COLO 205 = tested on: COLO 205
HCT-116 = tested on: HCT-116
SK-MEL-5 = tested on: SK-MEL-5
SF-539 = tested on: SF-539
TK-10 = tested on: TK-10
SK-MEL-28 = tested on: SK-MEL-28
ACHN = tested on: ACHN
SN12C = tested on: SN12C
OVCAR-3 = tested on: OVCAR-3
HCT-15 = tested on: HCT-15
NCI-H23 = tested on: NCI-H23

| Compound | GI50 (HOP-92) | GI50 (K562) | GI50 (RXF 393) | GI50 (A549) | GI50 (NCI-H522) | GI50 (HCC 2998) | GI50 (COLO 205) | GI50 (HCT-116) | GI50 (SK-MEL-5) | GI50 (SF-539) | GI50 (TK-10) | GI50 (SK-MEL-28) | GI50 (ACHN) | GI50 (SN12C) | GI50 (OVCAR-3) | GI50 (HCT-15) [µM] | GI50 (NCI-H23) |
| --- | --- | --- | --- | --- | --- | --- | --- | --- | --- | --- | --- | --- | --- | --- | --- | --- | --- |
| COc1c(NC(C)=O)cc(C)cc1NC(C)=O | > 100 µM (inactive) | > 100 µM (inactive) | > 100 µM (inactive) | > 100 µM (inactive) | > 100 µM (inactive) | > 100 µM (inactive) | > 100 µM (inactive) | > 100 µM (inactive) | > 100 µM (inactive) | > 100 µM (inactive) | > 100 µM (inactive) | > 100 µM (inactive) | > 100 µM (inactive) | > 100 µM (inactive) | > 100 µM (inactive) | > 100 | – |
| O=S(=O)(NCn1ccc2ccccc21)c1ccccc1 | > 100 µM (inactive) | > 100 µM (inactive) | > 63.8 µM (inactive) | > 100 µM (inactive) | > 100 µM (inactive) | > 100 µM (inactive) | > 79.8 µM (inactive) | 49.3 µM (inactive) | > 100 µM (inactive) | > 100 µM (inactive) | > 100 µM (inactive) | > 77.8 µM (inactive) | 97.5 µM (inactive) | > 100 µM (inactive) | > 100 µM (inactive) | > 57.7 | > 100 µM (inactive) |
| O=C(/C=C/c1c(O)ccc2ccccc12)c1ccc2ccccc2c1 | > 100 µM (inactive) | > 100 µM (inactive) | > 100 µM (inactive) | > 100 µM (inactive) | > 100 µM (inactive) | > 100 µM (inactive) | > 100 µM (inactive) | > 100 µM (inactive) | – | > 100 µM (inactive) | > 100 µM (inactive) | > 100 µM (inactive) | > 100 µM (inactive) | > 100 µM (inactive) | > 100 µM (inactive) | > 100 | > 100 µM (inactive) |
| C[C@H]1COC2(c3ccccc3)CCC(=O)N12 (some centres undefined) | > 100 µM (inactive) | > 100 µM (inactive) | > 100 µM (inactive) | > 100 µM (inactive) | – | – | > 100 µM (inactive) | > 100 µM (inactive) | > 100 µM (inactive) | > 100 µM (inactive) | > 100 µM (inactive) | > 100 µM (inactive) | > 100 µM (inactive) | > 100 µM (inactive) | > 100 µM (inactive) | > 100 | > 100 µM (inactive) |
| Cc1ccc(NC(=O)CC(=O)n2nc(-c3ccccc3)c(/N=N\c3ccccc3[N+](=O)[O-])c2-c2ccccc2)cc1 | 28.2 µM (inactive) | > 100 µM (inactive) | 55.1 µM (inactive) | 90.2 µM (inactive) | 74.8 µM (inactive) | > 100 µM (inactive) | > 100 µM (inactive) | 70.3 µM (inactive) | 57.5 µM (inactive) | 37.2 µM (inactive) | > 100 µM (inactive) | > 100 µM (inactive) | 89.3 µM (inactive) | > 100 µM (inactive) | 82.8 µM (inactive) | – | > 100 µM (inactive) |
| O=c1[nH]c(C2CCCCC2)nc2cc(Cl)ccc12 | 44 µM (inactive) | > 100 µM (inactive) | 45.6 µM (inactive) | > 100 µM (inactive) | > 100 µM (inactive) | > 100 µM (inactive) | > 100 µM (inactive) | > 100 µM (inactive) | > 100 µM (inactive) | > 100 µM (inactive) | > 100 µM (inactive) | > 100 µM (inactive) | > 100 µM (inactive) | > 100 µM (inactive) | > 100 µM (inactive) | > 100 | > 100 µM (inactive) |
| NN=C1/C(=C\c2ccccc2)CCC/C1=C/c1ccccc1 | 25.7 µM (inactive) | 20.4 µM (inactive) | 31 µM (inactive) | 33.3 µM (inactive) | 15.4 µM (inactive) | 35.6 µM (inactive) | 26.9 µM (inactive) | 30.8 µM (inactive) | – | 24.4 µM (inactive) | > 100 µM (inactive) | 39.5 µM (inactive) | 27.4 µM (inactive) | 27 µM (inactive) | 32.3 µM (inactive) | 36.7 | 36.9 µM (inactive) |
| CC(=O)/C=C\C1CC2C=CC1C2 (centres undefined) | 29.2 µM (inactive) | 21.6 µM (inactive) | 63 µM (inactive) | 67.1 µM (inactive) | – | 24.3 µM (inactive) | 37.6 µM (inactive) | 15.2 µM (inactive) | 57.9 µM (inactive) | 37.4 µM (inactive) | 86.5 µM (inactive) | – | 79.3 µM (inactive) | 26.7 µM (inactive) | 37.8 µM (inactive) | 22.5 | 36.1 µM (inactive) |
| COCOc1ccc(Cn2c(=O)n(C)c(=O)c3c2ncn3C)cc1[N+](=O)[O-] | – | > 100 µM (inactive) | > 100 µM (inactive) | > 100 µM (inactive) | > 100 µM (inactive) | > 100 µM (inactive) | > 100 µM (inactive) | > 100 µM (inactive) | – | > 100 µM (inactive) | > 100 µM (inactive) | > 100 µM (inactive) | > 100 µM (inactive) | > 100 µM (inactive) | > 100 µM (inactive) | > 100 | 80.2 µM (inactive) |
| CC(=O)NC(CCCNC(=O)OCc1ccccc1)C(=O)O (centres undefined) | > 100 µM (inactive) | > 100 µM (inactive) | > 100 µM (inactive) | > 100 µM (inactive) | > 100 µM (inactive) | > 100 µM (inactive) | > 100 µM (inactive) | > 100 µM (inactive) | > 100 µM (inactive) | > 100 µM (inactive) | > 100 µM (inactive) | > 100 µM (inactive) | > 100 µM (inactive) | > 100 µM (inactive) | > 100 µM (inactive) | > 100 | > 100 µM (inactive) |
| O=C(/C=C(\O)C(=O)O)/C=C(\O)c1ccccc1Cl | > 100 µM (inactive) | > 100 µM (inactive) | > 100 µM (inactive) | > 100 µM (inactive) | > 100 µM (inactive) | > 100 µM (inactive) | > 100 µM (inactive) | > 100 µM (inactive) | > 100 µM (inactive) | > 100 µM (inactive) | > 100 µM (inactive) | > 100 µM (inactive) | > 100 µM (inactive) | > 100 µM (inactive) | > 100 µM (inactive) | > 100 | > 100 µM (inactive) |
| CC1CC(C)C2OC2(C)C[C@H](C)C(=O)NC(C)C(=O)N(C)[C@H](Cc2c(Br)[nH]c3ccccc23)C(=O)N[C@@H](c2ccc(O)cc2)CC(=O)O1 (some centres undefined) | 0.352 µM (active) | 0.703 µM (active) | 1.47 µM (inactive) | 0.28 µM (active) | 0.0504 µM (active) | 0.11 µM (active) | 0.0214 µM (active) | 0.0396 µM (active) | 0.0933 µM (active) | 0.111 µM (active) | 0.741 µM (active) | 0.839 µM (active) | 2.16 µM (inactive) | 0.776 µM (active) | 0.49 µM (active) | 39.3 | 0.902 µM (active) |
| CC/C(CC(=O)CCC(=O)Nc1ccc(C)c(C)c1)=N\NC(=O)C(N)=O | > 100 µM (inactive) | > 100 µM (inactive) | – | > 100 µM (inactive) | > 100 µM (inactive) | – | > 100 µM (inactive) | > 100 µM (inactive) | > 100 µM (inactive) | > 100 µM (inactive) | > 100 µM (inactive) | > 100 µM (inactive) | > 100 µM (inactive) | > 100 µM (inactive) | > 100 µM (inactive) | > 100 | > 100 µM (inactive) |
| O=C(O)Cc1cc(=O)oc2cc(O)c(Cl)cc12 | > 100 µM (inactive) | > 100 µM (inactive) | – | > 100 µM (inactive) | > 100 µM (inactive) | > 100 µM (inactive) | > 100 µM (inactive) | > 100 µM (inactive) | > 100 µM (inactive) | > 100 µM (inactive) | > 100 µM (inactive) | > 100 µM (inactive) | > 100 µM (inactive) | > 100 µM (inactive) | > 100 µM (inactive) | > 100 | > 100 µM (inactive) |
| CC(=O)O[C@H]1C(=O)[C@@]2(C)C(C(OC(=O)c3ccccc3)[C@]3(O)CC(OC(=O)C(O)C(NC(=O)c4ccc(C(F)(F)F)cc4)c4ccccc4)C(C)=C1C3(C)C)[C@]1(OC(C)=O)CO[C@@H]1C[C@@H]2O (some centres undefined) | 2.13 µM (inactive) | 0.108 µM (active) | – | 0.218 µM (active) | 0.0755 µM (active) | 0.101 µM (active) | 0.0706 µM (active) | 0.05 µM (active) | 0.0942 µM (active) | 0.166 µM (active) | 1.95 µM (inactive) | 0.128 µM (active) | 1.9 µM (inactive) | 0.159 µM (active) | 0.0757 µM (active) | 4.97 | 0.136 µM (active) |
| CS(=O)(=O)N(CCC#N)c1ccc(C=O)cc1 | – | > 100 µM (inactive) | – | > 100 µM (inactive) | > 100 µM (inactive) | > 100 µM (inactive) | – | > 100 µM (inactive) | > 100 µM (inactive) | > 100 µM (inactive) | – | > 100 µM (inactive) | > 100 µM (inactive) | > 100 µM (inactive) | > 100 µM (inactive) | > 100 | – |
| Cc1c(N2CCN(C)CC2)nc2ccc(Cl)cc2c1-c1ccccc1 | – | 14.5 µM (inactive) | 15.9 µM (inactive) | 18.4 µM (inactive) | 19.9 µM (inactive) | > 10 µM (inactive) | 16.1 µM (inactive) | 17.8 µM (inactive) | 15.4 µM (inactive) | 17.6 µM (inactive) | > 10 µM (inactive) | 18 µM (inactive) | 22 µM (inactive) | 14.7 µM (inactive) | 24.3 µM (inactive) | 18.9 | 23.1 µM (inactive) |
| CC(=O)Nc1ccccc1-c1nc2ccccc2nc1C | > 100 µM (inactive) | > 100 µM (inactive) | – | > 100 µM (inactive) | > 100 µM (inactive) | – | > 100 µM (inactive) | > 100 µM (inactive) | > 100 µM (inactive) | > 100 µM (inactive) | > 100 µM (inactive) | > 100 µM (inactive) | > 100 µM (inactive) | > 100 µM (inactive) | > 100 µM (inactive) | > 100 | > 100 µM (inactive) |

Source: ChEMBL document CHEMBL1201862, “PubChem BioAssay data set” (2004)
